Results on ten molecules are retold here after PMC12530843, “Identification of a New Interesting BAG3 Modulator Able to Disrupt Cancer‐Related Pathways” (Chemmedchem, 2025).

“Also recorded” adds a separate entry of the source.

The target in assay [1] is T1, BAG3-BD (Homo sapiens, UniProt O95817).
T1 construct: the BAG3 domain (BAG3‐BD) was sourced from ARETA International S.r.l; (Gerenzano, Italy); purchased ARETA International S.r.l
T1 sequence (O95817 421-498 limits assumed): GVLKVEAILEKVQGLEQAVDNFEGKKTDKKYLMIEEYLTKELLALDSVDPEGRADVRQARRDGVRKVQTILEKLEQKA
Briefly: SPR binding on BAG3 BAG domain. The settings on record: Biacore T200, 25 °C, 1:1 model; for Kd: read-out: BAG3–BD KD ± SD. How it is done:
(§1) Recombinant human BAG3 protein (Bcl2‐associated athanogene 3) was obtained from Novus Biologicals (Littleton, Colorado), while the BAG3 domain (BAG3‐BD) was sourced from ARETA International S.r.l. (Gerenzano, Italy). We used (Z)‐ethyl 2‐(5‐(3,4‐dihydroxybenzylidene)‐2,4‐dioxothiazolidin‐3‐yl)acetate (LK4), a BAG3 inhibitor previously identified by our group.^[ [13] ^] SPR spectroscopy was performed using a Biacore T200 optical biosensor with CM5 sensor chips (Cytiva, Marlborough, USA) to assess the affinity of synthesized molecules for BAG3 and BAG‐BD. BAG3 and BAG‐BD were immobilized on CM5 sensor chip using standard amine‐coupling protocol.^[ [15] ^, [42] ^, [43] ^] BAG3 protein (0.067 μg μL^−1 in 10 mM CH3COONa, pH 4.5) was immobilized at a flow rate of 10 μL min^−1, achieving a surface density of 14 kRU, while BAG3‐BD (0.38 μg μL^−1 in 10 mM CH3COONa, pH 4.5) reached a density of 4 kRU. For the experiments, BAG3 and BAG‐BD surfaces, as well as an unmodified reference surface, were prepared for simultaneous analysis. Compounds 1–10 and LK4 were initially dissolved to 10 mM in 100% DMSO, then diluted 1:20 (v/v) in PBS‐P buffer (0.2 M phosphate buffer, 27 mM KCl, 1.37 M NaCl, 0.5% surfactant P20) resulting in a final DMSO concentration of 5.0%. The compounds were injected in a concentration series (1:2 dilution, 10 different concentrations) ranging from 0 to 100 μM, using 96‐well plates. SPR experiments were conducted at 25 °C with a flow rate of 20 μL min^−1, featuring a 90 s association phase followed by a 400 s dissociation phase. Changes in mass, recorded as resonance units (RU), were used to quantify binding responses, while K D values were determined using Biaevaluation software by globally fitting the double‐referenced association and dissociation data to a 1:1 interaction model. (See Figure S43–S56, Supporting Information).
Background: In SPR one partner is held on a chip, and binding of the other changes the refractive index at the surface.

For assay [2], the target named is T2, BAG3 full length (Homo sapiens, UniProt O95817).
T2 construct: purchased Novus Biologicals (Littleton, Colorado)
T2 sequence (O95817 whole entry): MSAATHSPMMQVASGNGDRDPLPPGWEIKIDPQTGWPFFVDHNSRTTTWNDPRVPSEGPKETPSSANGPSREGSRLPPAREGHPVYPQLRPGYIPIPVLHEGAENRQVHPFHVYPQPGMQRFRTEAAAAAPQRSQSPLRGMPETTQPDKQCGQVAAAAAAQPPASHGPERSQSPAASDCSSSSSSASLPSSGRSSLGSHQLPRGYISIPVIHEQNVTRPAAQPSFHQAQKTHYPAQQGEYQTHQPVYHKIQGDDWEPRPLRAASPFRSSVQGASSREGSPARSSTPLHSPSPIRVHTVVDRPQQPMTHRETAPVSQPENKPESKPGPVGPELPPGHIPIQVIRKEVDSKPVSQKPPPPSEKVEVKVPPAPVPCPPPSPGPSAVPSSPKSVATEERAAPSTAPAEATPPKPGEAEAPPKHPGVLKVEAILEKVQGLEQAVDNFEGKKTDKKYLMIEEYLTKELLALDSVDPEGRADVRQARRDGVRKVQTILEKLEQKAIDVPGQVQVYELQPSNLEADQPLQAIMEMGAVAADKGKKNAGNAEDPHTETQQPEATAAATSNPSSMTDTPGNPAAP
Kind of assay: SPR binding on full-length BAG3. The settings on record: Biacore T200, 25 °C, 1:1 model; for Kd: read-out: BAG3 FULL KD ± SD. How it is done:
as §1

For assay [3], the system named is HeLa cells. More on the design: method as in PMID 29926854. As to conditions: reported value; read-out: IC50 in HeLa cell line; cited from earlier work.

In the case of `O=C(OCc1cn(Cc2cccc3ccccc23)nn1)c1cccc([N+](=O)[O-])c1` [Compound 3, (1‐(Naphthalen‐1‐ylmethyl)‐1H‐1,2,3‐triazol‐4‐yl)methyl 3‐nitrobenzoate], in assay [1], the “BAG3–BD KD ± SD” value is given as “not able to bind”. For the same molecule, the “BAG3 FULL KD ± SD” value in assay [2] is reported as “not able to bind; also recorded: No binding”.
For `Cc1cc(C)n(-c2cccc(Cn3cc(COC(=O)c4ccc(N)c(Br)c4)nn3)c2)n1` [Compound 9, (1‐(3‐(3,5‐Dimethyl‐1H‐pyrazol‐1‐yl)benzyl)‐1H‐1,2,3‐triazol‐4‐yl)methyl 4‐amino‐3‐bromobenzoate], in assay [2], the “BAG3 FULL KD ± SD” value was “did not show the ability to bind; also recorded: No binding”.
The Kd is the concentration at which binding is half-saturated. In the case of `O=C(OCc1cn(Cc2ccc3ccccc3n2)nn1)c1ccccc1I` [Compound 8, (1‐(Quinolin‐2‐ylmethyl)‐1H‐1,2,3‐triazol‐4‐yl)methyl 2‐iodobenzoate], the dissociation constant Kd in assay [1] turned out to be 2.43 ± 0.09 µM; in assay [2] it was 12.6 ± 1.2 µM.
As for `Nc1ccc(C(=O)OCc2cn(Cc3ccc4ccccc4n3)nn2)cc1Br` [Compound 7, (1‐(Quinolin‐2‐ylmethyl)‐1H‐1,2,3‐triazol‐4‐yl)methyl 4‐amino‐3‐bromobenzoate], the dissociation constant (Kd) in assay [1] was 6.32 ± 0.12 µM; in assay [2], 11.4 ± 2.43 µM.
As for `O=C(OCc1cn(Cc2ccc3ccccc3n2)nn1)c1ccnc(Cl)c1` [Compound 6, (1‐(Quinolin‐2‐ylmethyl)‐1H‐1,2,3‐triazol‐4‐yl)methyl 2‐chloroisonicotinate], the results for the equilibrium dissociation constant (Kd) in assay [1] and in assay [2] were 2.78 ± 0.88 µM and 24 ± 4.6 µM, respectively.
With `Cc1cc(C)n(-c2cccc(Cn3cc(COC(=O)c4cccc([N+](=O)[O-])c4)nn3)c2)n1` [Compound 4, (1‐(3‐(3,5‐Dimethyl‐1H‐pyrazol‐1‐yl)benzyl)‐1H‐1,2,3‐triazol‐4‐yl)methyl 3‐nitrobenzoate], the “BAG3–BD KD ± SD” value in assay [1] is “not able to bind”. Also, in assay [2], the “BAG3 FULL KD ± SD” value is listed as “not able to bind; also recorded: No binding”.
By IC50 is commonly meant the midpoint of a concentration-inhibition curve. Consider `CCOC(=O)CN1C(=O)S/C(=C\c2ccc(O)c(O)c2)C1=O` [LK4, (Z)‐ethyl 2‐(5‐(3,4‐dihydroxybenzylidene)‐2,4‐dioxothiazolidin‐3‐yl)acetate], for which the IC50 in assay [3] is over 50 µM.
For `O=C(OCc1cn(Cc2ccc3ccccc3n2)nn1)c1cccc([N+](=O)[O-])c1` [Compound 5, (1‐(Quinolin‐2‐ylmethyl)‐1H‐1,2,3‐triazol‐4‐yl)methyl 3‐nitrobenzoate], the Kd in assay [1] was determined as 8.27 ± 0.98 µM; in assay [2], 12.5 ± 2.26 µM.
In the case of `O=C(OCc1cn(COCc2ccccc2)nn1)c1cccc([N+](=O)[O-])c1` [Compound 1, (1‐((Benzyloxy)methyl)‐1H‐1,2,3‐triazol‐4‐yl)methyl 3‐nitrobenzoate], in assay [1], the “BAG3–BD KD ± SD” value is on record as “low micromolar range” and the dissociation constant Kd came to 1.87 ± 0.03 µM. Further, in assay [2], the “BAG3 FULL KD ± SD” value is listed as “low micromolar range” and the Kd was 3.31 ± 0.18 µM.
As for `Nc1ccc(C(=O)OCc2cn(Cc3cccc4ccccc34)nn2)cc1Br` [Compound 10, (1‐(Naphthalen‐1‐ylmethyl)‐1H‐1,2,3‐triazol‐4‐yl)methyl 4‐amino‐3‐bromobenzoate], the “BAG3 FULL KD ± SD” value in assay [2] is “did not show a satisfactory binding; also recorded: No binding”.
